Reference: patent US20210251239A1 (priority 2018, published 2021)
≈ marks a conversion by molar mass, not a printed value.

What was measured:
[1] = test system: Colletotrichum gleosporoides; experiment: MTT cell viability assay for determination of IC50 for chemical fungicides; type: cell-based; details: read-out: IC50 for C. gleosporoides
Description: (§1) Assays were carried out in 1.5 mL microcentrifuge tubes. The indicated fungicides were dissolved in DMSO at a stock concentration of 1 mg/mL. Enzymes were desalted into 50 mM MES buffer, pH 6.0 using a 200 mL Sephadex G25 column with 9.5 mL/min flowrate before adding to the germination assay. […] The reaction mixture without fungicide served as a negative inhibition control, and a reaction mixture containing 0.2 mg/mL mannase acid or 20 mg/mL M-PEG (1,2-propanediol) served as a positive inhibition control. The spore germination mixture was incubated at 27° C. for 3 days. At the end of the incubation period, 200 μL of 3-(4,5-dimethylthiazol-2-yl)-2,5-diphenyltetrazolium bromide (MTT) dye was added to the existing 400 μL of assay culture and was incubated for another 3 hr at 27° C. in the dark. The tubes were then centrifuged, and the supernatants were discarded. To the residue left in the tubes, 200 μL of DMSO was added to dissolve the formazan formed by the live fungal cells. The tubes were vortexed and centrifuged again. 100 μL of the supernatant from each tube was transferred into a separate well in a 96-well microtiter plate and absorbance was measured at 540 nm. Inhibition of fungal germination and growth by enzymes was determined relative to the uninhibited control for samples without chemical fungicide, and relative to the 50% inhibited cultures for samples containing each of the chemical fungicides tested.
(§2) Each fungicide was dissolved in DMSO at 1 mg/mL concentration, then added to the germination assay at final concentrations of 0, 0.01, 0.02, 0.04, 0.06, 0.08 mg/mL.

Fusarium verticilloides = experiment: as above; type: cell-based; details: for IC50: Fusarium, read-out: IC50 for F. verticilloides
Description: as §1, §2

Septoria nodorum = type: cell-based
Fusarium graminearum = type: cell-based
Fusarium virguliforme = type: cell-based

Molecule	IC50 [1] [µg/mL]	IC50 (Fusarium verticilloides) [µg/mL]	EC50 Enzyme (Septoria nodorum) [µg/mL]	IC50 plus chemistry (Septoria nodorum) [µg/mL]	EC50 Enzyme (Fusarium virguliforme) [µg/mL]	IC50 plus chemistry (Fusarium virguliforme) [µg/mL]	further results
OC(Cc1ccccc1Cl)(Cn1nc[nH]c1=S)C1(Cl)CC1 (centres unmarked) [Prothioconazole, prothioconazole]	13 (≈ 37.8 µM)	22 (≈ 63.9 µM)	–	–	–	–	–
CON=C(C(=O)OC)c1ccccc1CON=C(C)c1cccc(C(F)(F)F)c1 [Trifloxystrobin, trifloxystrobin]	18 (≈ 44.1 µM)	6 (≈ 14.7 µM)	–	–	–	–	–
catalase	–	–	285	>500	–	–	–
glucose oxidase	–	–	<1	<1	<1	<1	EC50 Enzyme (Fusarium graminearum): <1 µg/mL; IC50 plus chemistry (Fusarium graminearum): <1 µg/mL; EC50 Enzyme (Botrytis cinerea): <1 µg/mL; IC50 plus chemistry (Botrytis cinerea): <1 µg/mL
lysozyme	–	–	–	–	>500	2	–
propineb [Antracol (Propineb)]	–	–	–	–	–	–	IC50 for F. verticilloides (Fusarium verticilloides; 50% inhibition of germination and growth, fit IC50): ~300 µg/mL
